IC50 data for 35 compounds are collected here from patent US8134007B2, “Pyridine derivatives” (Pfizer Inc., priority 2007, dated 2012).

What all share (type): cell-based
One test addresses T1, Human Nav1.5 (Homo sapiens, UniProt Q14524).
T1 construct: expressed in transfected cells; host or cells: HEK293
As to the kind of experiment: Nav1.5 Assay (VIPR, HEK293 cells). Particulars: HEK293 cells expressing Human Nav1.5; average of replicates; read-out: Nav1.5 IC50. On the procedure: The Nav1.5 assay is performed in HEK293 cells expressing Human Nav1.5 in the same way as the Nav1.8 assay.
Where replicate experiments were conducted resulting in multiple sets of data for a test compound, the data presented represent the average value from all replicate experiments.

A further test concerns the target T2, Human Nav1.8 (Homo sapiens, UniProt Q9Y5Y9).
T2 construct: expressed in transfected cells; host or cells: HEK293
In words: VIPR Assay for Nav1.8 Compounds (FRET membrane potential, deltamethrin opener). The note with it: VIPR FRET membrane potential assay, deltamethrin opener; average of replicates; read-out: Nav1.8 IC50.

Test [1] deals with tetrodotoxin-sensitive voltage-gated sodium channels including NaV1.2, NaV1.3 and NaV1.7. In words: TTX-S Assay (VIPR, SHSY-5Y cell line, veratridine opener). The note with it: read-out: TTX-S IC50, veratridine 50 μM opener, average of replicates.

Some results are limits rather than exact numbers.

T1 sequence (Q14524 whole entry): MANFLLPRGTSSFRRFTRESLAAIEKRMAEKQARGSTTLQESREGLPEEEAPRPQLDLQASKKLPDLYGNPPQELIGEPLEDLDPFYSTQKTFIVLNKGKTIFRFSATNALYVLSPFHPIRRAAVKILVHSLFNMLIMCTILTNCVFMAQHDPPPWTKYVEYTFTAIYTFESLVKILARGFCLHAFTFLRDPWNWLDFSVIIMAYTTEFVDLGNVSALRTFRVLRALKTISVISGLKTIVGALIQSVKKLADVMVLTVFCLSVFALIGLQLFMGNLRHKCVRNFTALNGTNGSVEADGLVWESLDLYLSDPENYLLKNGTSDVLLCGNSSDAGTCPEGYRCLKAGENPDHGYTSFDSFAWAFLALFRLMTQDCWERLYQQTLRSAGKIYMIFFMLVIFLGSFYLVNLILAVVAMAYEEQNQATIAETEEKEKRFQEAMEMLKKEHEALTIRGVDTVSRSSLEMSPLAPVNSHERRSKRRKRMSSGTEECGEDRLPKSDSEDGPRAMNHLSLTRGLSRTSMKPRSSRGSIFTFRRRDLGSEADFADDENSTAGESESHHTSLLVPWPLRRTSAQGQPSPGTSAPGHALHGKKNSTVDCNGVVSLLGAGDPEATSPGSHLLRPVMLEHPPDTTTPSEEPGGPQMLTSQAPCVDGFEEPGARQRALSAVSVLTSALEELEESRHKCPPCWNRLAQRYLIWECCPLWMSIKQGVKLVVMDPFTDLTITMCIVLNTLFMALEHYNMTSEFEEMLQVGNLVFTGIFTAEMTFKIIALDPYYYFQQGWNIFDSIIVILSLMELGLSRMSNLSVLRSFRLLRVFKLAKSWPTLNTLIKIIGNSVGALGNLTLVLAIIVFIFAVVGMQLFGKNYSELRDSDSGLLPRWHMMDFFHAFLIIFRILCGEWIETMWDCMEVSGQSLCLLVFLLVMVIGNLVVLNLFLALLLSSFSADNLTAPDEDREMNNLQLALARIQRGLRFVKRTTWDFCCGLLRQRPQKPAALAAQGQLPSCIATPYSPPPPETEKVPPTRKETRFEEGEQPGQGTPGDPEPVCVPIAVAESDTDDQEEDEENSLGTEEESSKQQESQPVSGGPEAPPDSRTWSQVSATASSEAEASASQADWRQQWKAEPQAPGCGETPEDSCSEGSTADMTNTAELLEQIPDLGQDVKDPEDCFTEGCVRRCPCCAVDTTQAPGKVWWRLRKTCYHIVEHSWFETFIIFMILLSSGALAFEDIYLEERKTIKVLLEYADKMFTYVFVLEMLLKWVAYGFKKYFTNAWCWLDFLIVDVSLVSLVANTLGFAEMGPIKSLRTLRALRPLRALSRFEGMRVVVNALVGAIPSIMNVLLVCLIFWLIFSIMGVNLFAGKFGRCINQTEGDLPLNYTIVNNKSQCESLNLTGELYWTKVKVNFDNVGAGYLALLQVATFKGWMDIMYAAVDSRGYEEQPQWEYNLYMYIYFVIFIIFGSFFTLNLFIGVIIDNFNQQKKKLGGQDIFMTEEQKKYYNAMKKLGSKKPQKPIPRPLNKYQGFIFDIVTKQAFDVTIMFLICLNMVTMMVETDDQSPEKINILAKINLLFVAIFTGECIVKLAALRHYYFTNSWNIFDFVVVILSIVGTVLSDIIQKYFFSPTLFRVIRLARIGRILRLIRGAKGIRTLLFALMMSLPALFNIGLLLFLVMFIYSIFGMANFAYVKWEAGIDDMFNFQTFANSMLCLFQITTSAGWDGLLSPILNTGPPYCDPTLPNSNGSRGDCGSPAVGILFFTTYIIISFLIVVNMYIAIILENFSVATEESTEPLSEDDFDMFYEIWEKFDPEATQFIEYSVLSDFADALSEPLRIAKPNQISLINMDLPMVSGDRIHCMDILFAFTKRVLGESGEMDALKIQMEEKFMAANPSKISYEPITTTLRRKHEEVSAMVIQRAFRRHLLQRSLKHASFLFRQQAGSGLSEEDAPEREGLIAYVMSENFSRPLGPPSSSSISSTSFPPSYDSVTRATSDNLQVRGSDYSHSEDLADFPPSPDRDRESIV
T2 sequence (Q9Y5Y9 whole entry): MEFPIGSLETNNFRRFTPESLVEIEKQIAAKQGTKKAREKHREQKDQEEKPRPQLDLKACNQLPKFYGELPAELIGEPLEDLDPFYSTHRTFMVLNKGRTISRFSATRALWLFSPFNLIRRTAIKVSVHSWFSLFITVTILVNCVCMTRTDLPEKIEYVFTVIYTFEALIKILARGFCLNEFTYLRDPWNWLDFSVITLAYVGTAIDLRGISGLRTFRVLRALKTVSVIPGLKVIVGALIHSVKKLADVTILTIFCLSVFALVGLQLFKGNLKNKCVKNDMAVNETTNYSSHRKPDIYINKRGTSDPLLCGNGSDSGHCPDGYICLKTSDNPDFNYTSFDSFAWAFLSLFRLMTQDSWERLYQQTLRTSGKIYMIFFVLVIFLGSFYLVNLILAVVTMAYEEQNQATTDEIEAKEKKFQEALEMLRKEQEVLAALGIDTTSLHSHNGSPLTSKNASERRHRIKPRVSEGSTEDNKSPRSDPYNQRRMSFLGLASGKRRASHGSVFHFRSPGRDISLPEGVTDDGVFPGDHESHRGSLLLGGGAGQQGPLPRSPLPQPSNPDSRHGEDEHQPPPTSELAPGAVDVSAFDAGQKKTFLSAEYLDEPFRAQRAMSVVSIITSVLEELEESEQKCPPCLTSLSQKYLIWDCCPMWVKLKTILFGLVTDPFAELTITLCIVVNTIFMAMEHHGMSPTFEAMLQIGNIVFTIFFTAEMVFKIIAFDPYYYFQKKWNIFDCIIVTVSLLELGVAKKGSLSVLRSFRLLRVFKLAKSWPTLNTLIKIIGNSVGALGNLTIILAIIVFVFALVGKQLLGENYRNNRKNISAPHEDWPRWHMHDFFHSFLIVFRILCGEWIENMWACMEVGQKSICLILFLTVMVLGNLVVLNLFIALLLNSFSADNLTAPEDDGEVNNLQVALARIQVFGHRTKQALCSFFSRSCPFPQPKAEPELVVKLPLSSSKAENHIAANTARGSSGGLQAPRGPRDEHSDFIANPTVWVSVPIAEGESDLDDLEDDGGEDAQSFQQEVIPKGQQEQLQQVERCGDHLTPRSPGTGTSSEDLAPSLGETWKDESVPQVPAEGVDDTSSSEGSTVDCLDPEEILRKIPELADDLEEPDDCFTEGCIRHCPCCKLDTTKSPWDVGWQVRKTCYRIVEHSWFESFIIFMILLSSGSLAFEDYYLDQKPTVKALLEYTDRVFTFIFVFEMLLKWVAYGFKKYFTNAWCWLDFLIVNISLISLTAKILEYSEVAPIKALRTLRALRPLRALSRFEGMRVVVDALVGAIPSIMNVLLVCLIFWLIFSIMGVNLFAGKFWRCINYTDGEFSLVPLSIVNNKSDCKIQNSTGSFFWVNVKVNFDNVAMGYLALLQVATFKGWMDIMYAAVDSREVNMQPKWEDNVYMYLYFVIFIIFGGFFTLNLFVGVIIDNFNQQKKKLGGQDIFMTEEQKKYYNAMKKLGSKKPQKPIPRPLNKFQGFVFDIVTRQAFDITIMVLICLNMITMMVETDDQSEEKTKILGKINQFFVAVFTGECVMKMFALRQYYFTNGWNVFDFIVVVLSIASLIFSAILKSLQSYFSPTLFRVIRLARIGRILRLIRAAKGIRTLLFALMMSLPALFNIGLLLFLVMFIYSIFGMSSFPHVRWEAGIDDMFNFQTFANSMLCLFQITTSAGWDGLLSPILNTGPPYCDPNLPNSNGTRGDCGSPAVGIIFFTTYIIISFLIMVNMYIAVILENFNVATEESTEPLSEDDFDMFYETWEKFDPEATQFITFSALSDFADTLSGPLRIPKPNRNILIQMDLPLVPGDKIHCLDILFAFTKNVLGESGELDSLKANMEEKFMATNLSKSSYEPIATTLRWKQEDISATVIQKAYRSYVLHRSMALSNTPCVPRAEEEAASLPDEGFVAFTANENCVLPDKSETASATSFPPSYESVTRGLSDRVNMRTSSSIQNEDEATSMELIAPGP

As usually defined, the IC50 is the point on the concentration scale where inhibition reaches its midpoint. For the compound `COCc1nocc1C(=O)Nc1ccc(-c2ccccc2Cl)c(N)n1` [Example 89, N-[6-Amino-5-(2-chlorophenyl)pyridin-2-yl]-3-(methoxymethyl)isoxazole-4-carboxamide], the half-inhibitory concentration (IC50) is over 32 µM on Human Nav1.5, 4400 nM on Human Nav1.8 and over 32 µM in test [1].
With `Cn1nncc1C(=O)Nc1ccc(-c2cc(Cl)ccc2Cl)c(N)n1` [Example 80, N-[6-Amino-5-(2,5-dichlorophenyl)pyridin-2-yl]-1-methyl-1H-1,2,3-triazole-5-carboxamide], the IC50 at Human Nav1.5 came out at 15 µM; at Human Nav1.8 it was 3400 nM; in test [1], 15 µM.
For `Cc1nocc1C(=O)Nc1ccc(-c2ccccc2Cl)c(N)n1` [Example 26, N-[6-Amino-5-(2-chlorophenyl)pyridin-2-yl]-3-methylisoxazole-4-carboxamide], the figures for the 50% inhibitory concentration (IC50) (at Human Nav1.5; at Human Nav1.8; in test [1]) were 11 µM, 560 nM and 8.5 µM, respectively.
On the same counts, the results for `COCc1cc(C(=O)Nc2ccc(-c3ccccc3OC(F)(F)F)c(N)n2)on1` [Example 94] are 31 µM, over 32000 nM and 19 µM.
For `Cc1nocc1C(=O)Nc1ccc(-c2cc(OC(F)(F)F)ccc2Cl)c(N)n1` [Example 37, N-{6-Amino-5-[2-chloro-5-(trifluoromethoxy)phenyl]pyridin-2-yl}-3-methylisoxazole-4-carboxamide], in that order: 3.6 µM, 440 nM and 1.2 µM.
For `Cc1oncc1C(=O)Nc1ccc(-c2ccccc2Cl)c(N)n1` [Example 20, N-[6-Amino-5-(2-chlorophenyl)pyridin-2-yl]-5-methylisoxazole-4-carboxamide], the IC50 on Human Nav1.5 is 17 µM; at Human Nav1.8, 1000 nM; in test [1], 14 µM.
On the same counts, the results for `COCc1oncc1C(=O)Nc1ccc(-c2ccccc2Cl)c(N)n1` [Example 91] are over 32 µM, 2600 nM and over 32 µM.
On the same counts, the results for `Cn1nccc1C(=O)Nc1ccc(-c2ccc(F)cc2Cl)c(N)n1` [Example 10, N-[6-Amino-5-(2-chloro-4-fluorophenyl)pyridin-2-yl]-1-methyl-1H-pyrazole-5-carboxamide] are over 32 µM, 25000 nM and over 32 µM.
On the same counts, the results for `Nc1nc(NC(=O)c2cnon2)ccc1-c1cc(Cl)ccc1Cl` [Example 71, N-[6-Amino-5-(2,5-dichlorophenyl)pyridin-2-yl]-1,2,5-oxadiazole-3-carboxamide] are over 32 µM, over 32000 nM and over 32 µM.
Regarding `COc1ccc(Cl)c(-c2ccc(NC(=O)c3ccon3)nc2N)c1` [Example 73, N-[6-Amino-5-(2-chloro-5-methoxyphenyl)pyridin-2-yl]isoxazole-3-carboxamide], the figures for the half-inhibitory concentration (IC50) (at Human Nav1.5; on Human Nav1.8; in test [1]) were over 32 µM, 4700 nM and 18 µM, respectively.
On the same counts, the results for `COc1ccc(Cl)c(-c2ccc(NC(=O)c3conc3C)nc2N)c1` [Example 24, N-[6-Amino-5-(2-chloro-5-methoxyphenyl)pyridin-2-yl]-3-methylisoxazole-4-carboxamide] are 8.5 µM, 440 nM and 11 µM.
For `Nc1nc(NC(=O)c2conc2C(F)(F)F)ccc1-c1ccccc1OC(F)(F)F` [Example 112], in that order: 7.7 µM, 940 nM and 4.5 µM.
On the same counts, the results for `Cc1nonc1C(=O)Nc1ccc(-c2cc(F)ccc2Cl)c(N)n1` [Example 47, N-[6-Amino-5-(2-chloro-5-fluorophenyl)pyridin-2-yl]-4-methyl-1,2,5-oxadiazole-3-carboxamide] are 7.4 µM, 1400 nM and 6.1 µM.
For `CCn1nccc1C(=O)Nc1ccc(-c2cc(OC(F)(F)F)ccc2Cl)c(N)n1` [Example 65, N-{6-Amino-5-[2-chloro-5-(trifluoromethoxy)phenyl]pyridin-2-yl}-1-ethyl-1H-pyrazole-5-carboxamide], the concentration for half-maximal inhibition (IC50) was found to be 12 µM on Human Nav1.5, 5300 nM at Human Nav1.8 and 3.2 µM in test [1].
For `CCn1nccc1C(=O)Nc1ccc(-c2ccccc2OC(F)(F)F)c(N)n1` [Example 59, N-{6-Amino-5-[2-(trifluoromethoxy)phenyl]pyridin-2-yl}-1-ethyl-1H-pyrazole-5-carboxamide], in that order: 31 µM, 3600 nM and 17 µM.
For `Cc1nocc1C(=O)Nc1ccc(-c2cc(F)ccc2F)c(N)n1` [Example 34, N-[6-Amino-5-(2,5-difluorophenyl)pyridin-2-yl]-3-methylisoxazole-4-carboxamide], in that order: 16 µM, 3100 nM and 19 µM.
For `Cn1nccc1C(=O)Nc1ccc(-c2ccccc2OCC(F)(F)F)c(N)n1` [Example 119], in that order: 31 µM, 2000 nM and 26 µM.
As for `CCn1nccc1C(=O)Nc1ccc(-c2cc(OC)cc(Cl)c2Cl)c(N)n1` [Example 61, N-[6-Amino-5-(2,3-dichloro-5-methoxyphenyl)pyridin-2-yl]-1-ethyl-1H-pyrazole-5-carboxamide], the 50% inhibitory concentration (IC50) was found to be 9.7 µM on Human Nav1.5, 1300 nM on Human Nav1.8 and 9.7 µM in test [1].
For the compound `Cn1nccc1C(=O)Nc1ccc(-c2ccc(OC(F)(F)F)c(F)c2)c(N)n1` [Example 121], the half-maximal inhibitory concentration (IC50) is 8.6 µM at Human Nav1.5, 10000 nM on Human Nav1.8 and 3.2 µM in test [1].
With `Cc1nocc1C(=O)Nc1ccc(-c2cc(Cl)ccc2Cl)c(N)n1` [Example 25, N-[6-Amino-5-(2,5-dichlorophenyl)pyridin-2-yl]-3-methylisoxazole-4-carboxamide], the concentration for half-maximal inhibition (IC50) on Human Nav1.8 worked out at 1600 nM; in test [1], 10 µM.
Turning to `Nc1nc(NC(=O)c2ccon2)ccc1-c1cc(Cl)ccc1Cl` [Example 72, N-[6-Amino-5-(2,5-dichlorophenyl)pyridin-2-yl]isoxazole-3-carboxamide], the IC50 at Human Nav1.8 is 8600 nM; in test [1], 15 µM.
`COc1cccc(C(=O)Nc2ccc(-c3cc(Cl)ccc3Cl)c(N)n2)c1` [Example 102]: the half-inhibitory concentration (IC50) on Human Nav1.8 came out at 2300 nM; in test [1], 5.4 µM.
For `Cc1nonc1C(=O)Nc1ccc(-c2cc(Cl)ccc2Cl)c(N)n1` [Example 44, N-[6-Amino-5-(2,5-dichlorophenyl)pyridin-2-yl]-4-methyl-1,2,5-oxadiazole-3-carboxamide], in that order: 3200 nM and 8.1 µM.
For `COc1ccc(Cl)c(-c2ccc(NC(=O)c3nonc3C)nc2N)c1` [Example 45, N-[6-Amino-5-(2-chloro-5-methoxyphenyl)pyridin-2-yl]-4-methyl-1,2,5-oxadiazole-3-carboxamide], in that order: 2600 nM and 13 µM.
For `COc1ccc(Cl)c(-c2ccc(NC(=O)c3ccno3)nc2N)c1` [Example 76, N-[6-Amino-5-(2-chloro-5-methoxyphenyl)pyridin-2-yl]isoxazole-5-carboxamide], in that order: 860 nM and 6.5 µM.
With `Cc1oncc1C(=O)Nc1ccc(-c2cc(Cl)ccc2Cl)c(N)n1` [Example 21, N-[6-Amino-5-(2,5-dichlorophenyl)pyridin-2-yl]-5-methylisoxazole-4-carboxamide], the IC50 was found to be 23000 nM at Human Nav1.8 and 27 µM in test [1].
Turning to `Cc1nonc1C(=O)Nc1ccc(-c2ccc(Cl)cc2Cl)c(N)n1` [Example 49, N-[6-Amino-5-(2,4-dichlorophenyl)pyridin-2-yl]-4-methyl-1,2,5-oxadiazole-3-carboxamide], the IC50 was 6100 nM on Human Nav1.8 and 12 µM in test [1].
For `Nc1nc(NC(=O)c2ccno2)ccc1-c1cc(Cl)ccc1Cl` [Example 75, N-[6-Amino-5-(2,5-dichlorophenyl)pyridin-2-yl]isoxazole-5-carboxamide], in that order: 1400 nM and 24 µM.
For `COc1cc(OC)cc(C(=O)Nc2ccc(-c3cc(Cl)ccc3Cl)c(N)n2)c1` [Example 104], in that order: 3300 nM and 8 µM.
For `Nc1nc(NC(=O)c2ccon2)ccc1-c1ccccc1Cl` [Example 74, N-[6-Amino-5-(2-chlorophenyl)pyridin-2-yl]isoxazole-3-carboxamide], in that order: 4200 nM and 30 µM.
On to `COc1cc(Cl)cc(-c2ccc(NC(=O)c3nonc3C)nc2N)c1Cl` [Example 51, N-[6-Amino-5-(2,5-dichloro-3-methoxyphenyl)pyridin-2-yl]-4-methyl-1,2,5-oxadiazole-3-carboxamide], for which the IC50 on Human Nav1.8 worked out at 2600 nM; in test [1], 4.5 µM.
For `Nc1nc(NC(=O)c2ccccc2)ccc1-c1cc(Cl)ccc1Cl` [Example 97], in that order: 1900 nM and 5.4 µM.
For `Nc1nc(NC(=O)c2ccccc2Cl)ccc1-c1cc(Cl)ccc1Cl` [Example 101], in that order: 3700 nM and 6.2 µM.
On the same counts, the results for `COc1ccc(C(=O)Nc2ccc(-c3cc(Cl)ccc3Cl)c(N)n2)cc1OC` [Example 103] are 4100 nM and 8.4 µM.
As for `Cc1nonc1C(=O)Nc1ccc(-c2ccccc2Cl)c(N)n1` [Example 46, N-[6-Amino-5-(2-chlorophenyl)pyridin-2-yl]-4-methyl-1,2,5-oxadiazole-3-carboxamide], the values for the IC50 (at Human Nav1.8; in test [1]) were 1200 nM and 30 µM, respectively.
